Experimental findings from patent US20260130885A1, “ANTIMICROBIAL COMPOSITIONS, PHARMACEUTICAL COMPOSITIONS AND USE THEREOF” (priority 2022, published 2026) are described below.

The experiment concerns MRSA USA300. Description: Antibacterial activity assay (MIC by broth microdilution, MBC by subculture). The format is cell-based, Staphylococcus aureus. The settings on record: for MBC / MIC: Staphylococcus aureus, fatty acid alone; for MBC: read-out: MBC fatty acid; for MIC: read-out: MIC fatty acid; for synergy of the fatty acid with SC5005 (in words): summary of Tables 1 and 2. How it is done:
The antimicrobial activity was based on MIC and MBC; MIC is the minimum inhibitory concentration and MBC is the minimum bactericidal concentration. The MIC of individual test agents against MRSA USA300 strains was determined using the broth microdilution method according to CLSI guidelines. Briefly, overnight bacterial cultures in LB medium were diluted 1:50 in fresh LB medium and incubated at 37° C. until reaching an OD600 of 0.5 to 0.6. Bacterial suspensions were diluted to a final concentration of 5×10^5 cfu/mL in fresh CAMHB and then exposed to each test agent at increasing doses in triplicate in 96-well plates for 24 hours at 37° C. The MIC of each agent was defined as the lowest concentration without visible bacterial growth. […] The lowest broth dilution that had no viable bacteria was considered the MBC.
Then, the combination effect was measured by calculating their corresponding fractional inhibitory concentration index (FICI) with the equation ΣFIC (FICi)=FICA+FICB=(CombA/MICA)+(CombB/MICB), where MICA and MICB are the MICs of drugs A and B alone, respectively, and CombA and CombB are the concentrations of drugs A and B in combination, respectively. […] was defined as an FICI≤0.5, no interaction was defined as an FICI>0.5-4.0, and antagonism was defined as an FICI>4.
A general note: Dilution methods test growth across graded concentrations, often in twofold steps.

Broadly, the MBC is the smallest concentration meeting the test's criterion for killing. By MIC is commonly meant the smallest concentration in the dilution series that meets the test's criterion for growth inhibition.

As for `CCCCC/C=C\C/C=C\CCCCCCCC(=O)O` [linoleic acid], the MBC is greater than 1020 µg/mL and the minimal inhibitory concentration (MIC) was determined as 1020 µg/mL.

In the case of `CCCCCCCCCCCCCC(=O)O` [myristic acid], the MBC is greater than 1020 µg/mL; the MIC stood at 512 µg/mL; the “synergy of the fatty acid with SC5005 (in words)” value (shortened to “synergy of the fatty acid”) was “neither of nervonic acid (C24:1n9c) and myristic acid (C14:1n5c), which have 24 and 14 carbon atoms respectively, showed any synergistic activity with SC5005”.

Take `CCCCCCCC/C=C\CCCCCCCCCCCCCC(=O)O` [nervonic acid]: the minimum bactericidal concentration (MBC) is greater than 1020 µg/mL; the minimal inhibitory concentration (MIC) was determined as 128 µg/mL; the “synergy of the fatty acid” value was “neither of nervonic acid (C24:1n9c) and myristic acid (C14:1n5c), which have 24 and 14 carbon atoms respectively, showed any synergistic activity with SC5005”.

Consider `CCCCCCCC/C=C\CCCCCCCC(=O)O` [oleic acid], for which the MBC is greater than 1020 µg/mL and the minimum inhibitory concentration (MIC) turned out to be 512 µg/mL.

In the case of `CCCCCC/C=C\CCCCCCCC(=O)O` [palmitoleic acid], the MBC came to 512 µg/mL, the minimum inhibitory concentration (MIC) is 64 µg/mL and the “synergy of the fatty acid” value was “exhibited synergy”.

Consider `CCCCCCCCCCCCCCCCCC(=O)O` [stearic acid], for which the MBC was greater than 1020 µg/mL, the minimal inhibitory concentration (MIC) was found to be 512 µg/mL and the “synergy of the fatty acid” value is “failed to exhibit synergy”.

Consider `CC/C=C\C/C=C\C/C=C\CCCCCCCC(=O)O` [α- linolenic acid, α-linolenic acid], for which the MBC was found to be 1020 µg/mL and the minimum inhibitory concentration (MIC) is 256 µg/mL.
